test system: not listed separately; assay: Antioxidant activity assessed as ABTS radical scavenging activity incubated in dark for 6 mins by absorbance based microplate reader analysis; assay type: functional; conditions: not given

Structure (SMILES)	IC50
Cc1c(O)c(=O)ccn1NC(=O)/C=C/c1ccc(F)cc1Cl	5.01 µM
Cc1c(O)c(=O)ccn1NC(=O)/C=C/c1ccc(C(F)(F)F)cc1	12 µM
Cc1c(C)c2c(c(C)c1O)CCC(C)(C(=O)O)O2 (stereo not given) [TROLOX]	15.3 µM
Cc1cccc(C)c1/C=C/C(=O)Nn1ccc(=O)c(O)c1C	4.88 µM
COc1ccc(/C=C/C(=O)Nn2ccc(=O)c(O)c2C)c(OC)c1OC	6.99 µM
COc1ccc(/C=C/C(=O)Nn2ccc(=O)c(O)c2C)cc1OC	4.9 µM
COc1cc(F)ccc1/C=C/C(=O)Nn1ccc(=O)c(O)c1C	5.01 µM
Cc1c(O)c(=O)ccn1NC(=O)/C=C/c1c(F)cccc1F	4.81 µM
COc1ccc(/C=C/C(=O)Nn2ccc(=O)c(O)c2C)c(F)c1	> 100 µM

Further lines, results first:

IC50	Structure (SMILES)
4.9 µM	Cc1c(O)c(=O)ccn1NC(=O)/C=C/c1cccc(Cl)c1
4.78 µM	COc1cccc(/C=C/C(=O)Nn2ccc(=O)c(O)c2C)c1
> 100 µM	Cc1c(O)c(=O)ccn1NC(=O)/C=C/c1cc(Cl)ccc1Cl
8.66 µM	Cc1c(O)c(=O)ccn1NC(=O)/C=C/c1ccc(Cl)cc1
4.97 µM	Cc1c(O)c(=O)ccn1NC(=O)/C=C/c1ccc(F)cc1

test system: not listed separately; assay: Antioxidant activity assessed as trolox equivalent of ORAC radical scavenging activity at 8 uM; assay type: functional; conditions: not given

Structure (SMILES)	Activity
Cc1c(O)c(=O)ccn1NC(=O)/C=C/c1ccc(F)cc1Cl	4.78
Cc1c(O)c(=O)ccn1NC(=O)/C=C/c1cccc(Cl)c1	6.52
Cc1c(O)c(=O)ccn1NC(=O)/C=C/c1ccc(C(F)(F)F)cc1	0.61
COc1cccc(/C=C/C(=O)Nn2ccc(=O)c(O)c2C)c1	16.1
Cc1cccc(C)c1/C=C/C(=O)Nn1ccc(=O)c(O)c1C	5.6
COc1ccc(/C=C/C(=O)Nn2ccc(=O)c(O)c2C)c(OC)c1OC	14.8
Cc1c(O)c(=O)ccn1NC(=O)/C=C/c1cc(Cl)ccc1Cl	6.56
COc1ccc(/C=C/C(=O)Nn2ccc(=O)c(O)c2C)cc1OC	21.1
COc1cc(F)ccc1/C=C/C(=O)Nn1ccc(=O)c(O)c1C	3.83
Cc1c(O)c(=O)ccn1NC(=O)/C=C/c1c(F)cccc1F	5.03
COc1ccc(/C=C/C(=O)Nn2ccc(=O)c(O)c2C)c(F)c1	6.01
Cc1c(O)c(=O)ccn1NC(=O)/C=C/c1ccc(Cl)cc1	< 0.1
Cc1c(O)c(=O)ccn1NC(=O)/C=C/c1ccc(F)cc1	34.1

test system: not listed separately; assay: Antioxidant activity assessed as trolox equivalent of ORAC radical scavenging activity at 4 uM; assay type: functional; conditions: not given

Structure (SMILES)	Activity
Cc1c(O)c(=O)ccn1NC(=O)/C=C/c1ccc(F)cc1Cl	2.15
Cc1c(O)c(=O)ccn1NC(=O)/C=C/c1cccc(Cl)c1	3.27
Cc1c(O)c(=O)ccn1NC(=O)/C=C/c1ccc(C(F)(F)F)cc1	< 0.1
COc1cccc(/C=C/C(=O)Nn2ccc(=O)c(O)c2C)c1	8.99
Cc1cccc(C)c1/C=C/C(=O)Nn1ccc(=O)c(O)c1C	2.91
COc1ccc(/C=C/C(=O)Nn2ccc(=O)c(O)c2C)c(OC)c1OC	8.52
Cc1c(O)c(=O)ccn1NC(=O)/C=C/c1cc(Cl)ccc1Cl	3.06
COc1ccc(/C=C/C(=O)Nn2ccc(=O)c(O)c2C)cc1OC	15.7
COc1cc(F)ccc1/C=C/C(=O)Nn1ccc(=O)c(O)c1C	1.21
Cc1c(O)c(=O)ccn1NC(=O)/C=C/c1c(F)cccc1F	2.45
COc1ccc(/C=C/C(=O)Nn2ccc(=O)c(O)c2C)c(F)c1	< 0.1
Cc1c(O)c(=O)ccn1NC(=O)/C=C/c1ccc(Cl)cc1	< 0.1
Cc1c(O)c(=O)ccn1NC(=O)/C=C/c1ccc(F)cc1	22.8

test system: HT-22; assay: Cytotoxicity against mouse HT-22 cells assessed as reduction in cell viability at 150 uM by MTT assay relative to control; assay type: toxicity, cell-based; conditions: ht-22, 150 µM

Structure (SMILES)	Activity
COc1cccc(/C=C/C(=O)Nn2ccc(=O)c(O)c2C)c1	> 80%
COc1ccc(/C=C/C(=O)Nn2ccc(=O)c(O)c2C)c(OC)c1OC	> 80%
COc1ccc(/C=C/C(=O)Nn2ccc(=O)c(O)c2C)cc1OC	> 80%
Cc1c(O)c(=O)ccn1NC(=O)/C=C/c1ccc(F)cc1	> 80%

test system: HT-22; assay: Anti-ferroptotic activity in erastin-induced ferroptosis in mouse HT-22 cells assessed as cell viability incubated for 24 hrs by MTT assay; assay type: functional, cell-based; conditions: HT-22, 24 h

Structure (SMILES)	EC50
O=C(/C=C/c1ccccc1)c1ccccc1 [CHALCONE]	> 500 µM
COc1cccc(/C=C/C(=O)Nn2ccc(=O)c(O)c2C)c1	26.2 µM
COc1ccc(/C=C/C(=O)Nn2ccc(=O)c(O)c2C)c(OC)c1OC	19.6 µM
COc1ccc(/C=C/C(=O)Nn2ccc(=O)c(O)c2C)cc1OC	33.5 µM
Cc1c(O)c(=O)ccn1NC(=O)/C=C/c1ccc(F)cc1	17.4 µM

test system: HT-22; assay: Anti-ferroptotic activity against Erastin-induced ferroptosis in mouse HT-22 cells assessed as reduction in ROS accumulation at 100 uM measured after 24 hrs by DCFH-DA based flow cytometry analysis relative to control; assay type: functional; parameters: scale not given: the % may be the effect or the level left; conditions: not given

Structure (SMILES)	Activity
Cc1c(O)c(=O)ccn1NC(=O)/C=C/c1cccc(Cl)c1	100%

test system: not listed separately; assay: Acid dissociation constant, pKa1 of the compound in 0.1M KCl at pH 2.0 to 10.5 by UV absorption method; assay type: physicochemical; conditions: not given

Structure (SMILES)	pKa
Cc1c(O)c(=O)ccn1NC(=O)/C=C/c1ccc(F)cc1Cl	2.71
Cc1cccc(C)c1/C=C/C(=O)Nn1ccc(=O)c(O)c1C	2.06
COc1ccc(/C=C/C(=O)Nn2ccc(=O)c(O)c2C)c(OC)c1OC	2.1
COc1ccc(/C=C/C(=O)Nn2ccc(=O)c(O)c2C)cc1OC	2.29
COc1cc(F)ccc1/C=C/C(=O)Nn1ccc(=O)c(O)c1C	2.34
Cc1c(O)c(=O)ccn1NC(=O)/C=C/c1c(F)cccc1F	2.51

Next, values leading:

pKa	Structure (SMILES)
2.52	Cc1c(O)c(=O)ccn1NC(=O)/C=C/c1cccc(Cl)c1
2.4	COc1cccc(/C=C/C(=O)Nn2ccc(=O)c(O)c2C)c1
2.48	Cc1c(O)c(=O)ccn1NC(=O)/C=C/c1cc(Cl)ccc1Cl
2.64	Cc1c(O)c(=O)ccn1NC(=O)/C=C/c1ccc(F)cc1

test system: not listed separately; assay: Acid dissociation constant, pKa2 of the compound in 0.1M KCl at pH 2.0 to 10.5 by UV absorption method; assay type: physicochemical; conditions: not given

Structure (SMILES)	pKa
Cc1c(O)c(=O)ccn1NC(=O)/C=C/c1ccc(F)cc1Cl	6.7
Cc1cccc(C)c1/C=C/C(=O)Nn1ccc(=O)c(O)c1C	6.97
COc1ccc(/C=C/C(=O)Nn2ccc(=O)c(O)c2C)c(OC)c1OC	7.29
COc1ccc(/C=C/C(=O)Nn2ccc(=O)c(O)c2C)cc1OC	7.33
COc1cc(F)ccc1/C=C/C(=O)Nn1ccc(=O)c(O)c1C	7.02
Cc1c(O)c(=O)ccn1NC(=O)/C=C/c1c(F)cccc1F	6.83

The next lines start with the values.

pKa	Structure (SMILES)
6.66	Cc1c(O)c(=O)ccn1NC(=O)/C=C/c1cccc(Cl)c1
6.99	COc1cccc(/C=C/C(=O)Nn2ccc(=O)c(O)c2C)c1
7.34	Cc1c(O)c(=O)ccn1NC(=O)/C=C/c1cc(Cl)ccc1Cl
7.15	Cc1c(O)c(=O)ccn1NC(=O)/C=C/c1ccc(F)cc1

test system: not listed separately; assay: Acid dissociation constant, pKa3 of the compound in 0.1M KCl at pH 2.0 to 10.5 by UV absorption method; assay type: physicochemical; conditions: not given

Structure (SMILES)	pKa
Cc1c(O)c(=O)ccn1NC(=O)/C=C/c1ccc(F)cc1Cl	10.2
Cc1cccc(C)c1/C=C/C(=O)Nn1ccc(=O)c(O)c1C	10.3
COc1ccc(/C=C/C(=O)Nn2ccc(=O)c(O)c2C)c(OC)c1OC	10.2
COc1ccc(/C=C/C(=O)Nn2ccc(=O)c(O)c2C)cc1OC	10.2
COc1cc(F)ccc1/C=C/C(=O)Nn1ccc(=O)c(O)c1C	10.4
Cc1c(O)c(=O)ccn1NC(=O)/C=C/c1c(F)cccc1F	10.2

The next lines start with the values.

pKa	Structure (SMILES)
10.1	Cc1c(O)c(=O)ccn1NC(=O)/C=C/c1cccc(Cl)c1
10.2	COc1cccc(/C=C/C(=O)Nn2ccc(=O)c(O)c2C)c1
10	Cc1c(O)c(=O)ccn1NC(=O)/C=C/c1cc(Cl)ccc1Cl
10.2	Cc1c(O)c(=O)ccn1NC(=O)/C=C/c1ccc(F)cc1

test system: not listed separately; assay: Metal chelating activity assessed as Fe3+ chelation; conditions: not given

Structure (SMILES)	Activity
Cc1c(O)c(=O)ccn1NC(=O)/C=C/c1ccc(F)cc1Cl	17.6
Cc1cccc(C)c1/C=C/C(=O)Nn1ccc(=O)c(O)c1C	16.9
COc1ccc(/C=C/C(=O)Nn2ccc(=O)c(O)c2C)c(OC)c1OC	17
COc1ccc(/C=C/C(=O)Nn2ccc(=O)c(O)c2C)cc1OC	17.3
COc1cc(F)ccc1/C=C/C(=O)Nn1ccc(=O)c(O)c1C	17
Cc1c(O)c(=O)ccn1NC(=O)/C=C/c1c(F)cccc1F	17.4

Results, then the compound that gave them:

Activity	Structure (SMILES)
17.8	Cc1c(O)c(=O)ccn1NC(=O)/C=C/c1cccc(Cl)c1
17.8	COc1cccc(/C=C/C(=O)Nn2ccc(=O)c(O)c2C)c1
17.7	Cc1c(O)c(=O)ccn1NC(=O)/C=C/c1cc(Cl)ccc1Cl
17.8	Cc1c(O)c(=O)ccn1NC(=O)/C=C/c1ccc(F)cc1

test system: not listed separately; assay: Log K1 of the compound in 0.1M KCl at pH 0.9 to 2.1 by UV absorption method; assay type: physicochemical; conditions: not given

Structure (SMILES)	log(activity)
Cc1c(O)c(=O)ccn1NC(=O)/C=C/c1ccc(F)cc1Cl	14.41
Cc1cccc(C)c1/C=C/C(=O)Nn1ccc(=O)c(O)c1C	13.71
COc1ccc(/C=C/C(=O)Nn2ccc(=O)c(O)c2C)c(OC)c1OC	13.72
COc1ccc(/C=C/C(=O)Nn2ccc(=O)c(O)c2C)cc1OC	13.89
COc1cc(F)ccc1/C=C/C(=O)Nn1ccc(=O)c(O)c1C	14.06
Cc1c(O)c(=O)ccn1NC(=O)/C=C/c1c(F)cccc1F	14.27

The remaining lines, values ahead:

log(activity)	Structure (SMILES)
14.03	Cc1c(O)c(=O)ccn1NC(=O)/C=C/c1cccc(Cl)c1
14.2	COc1cccc(/C=C/C(=O)Nn2ccc(=O)c(O)c2C)c1
14.19	Cc1c(O)c(=O)ccn1NC(=O)/C=C/c1cc(Cl)ccc1Cl
14.3	Cc1c(O)c(=O)ccn1NC(=O)/C=C/c1ccc(F)cc1

test system: not listed separately; assay: Log K2 of the compound in 0.1M KCl at pH 2.0 to 10.5 by UV absorption method; assay type: physicochemical; conditions: not given

Structure (SMILES)	log(activity)
Cc1c(O)c(=O)ccn1NC(=O)/C=C/c1ccc(F)cc1Cl	26.4
Cc1cccc(C)c1/C=C/C(=O)Nn1ccc(=O)c(O)c1C	25.8
COc1ccc(/C=C/C(=O)Nn2ccc(=O)c(O)c2C)c(OC)c1OC	25.73
COc1ccc(/C=C/C(=O)Nn2ccc(=O)c(O)c2C)cc1OC	25.87
COc1cc(F)ccc1/C=C/C(=O)Nn1ccc(=O)c(O)c1C	26.09
Cc1c(O)c(=O)ccn1NC(=O)/C=C/c1c(F)cccc1F	26.25

Results, then the compound that gave them:

log(activity)	Structure (SMILES)
26.16	Cc1c(O)c(=O)ccn1NC(=O)/C=C/c1cccc(Cl)c1
26.72	COc1cccc(/C=C/C(=O)Nn2ccc(=O)c(O)c2C)c1
26.02	Cc1c(O)c(=O)ccn1NC(=O)/C=C/c1cc(Cl)ccc1Cl
26.34	Cc1c(O)c(=O)ccn1NC(=O)/C=C/c1ccc(F)cc1

test system: not listed separately; assay: Log K3 of the compound in 0.1M KCl at pH 2.0 to 10.5 by UV absorption method; assay type: physicochemical; conditions: not given

Structure (SMILES)	log(activity)
Cc1c(O)c(=O)ccn1NC(=O)/C=C/c1ccc(F)cc1Cl	35.55
Cc1cccc(C)c1/C=C/C(=O)Nn1ccc(=O)c(O)c1C	35.08
COc1ccc(/C=C/C(=O)Nn2ccc(=O)c(O)c2C)c(OC)c1OC	35
COc1ccc(/C=C/C(=O)Nn2ccc(=O)c(O)c2C)cc1OC	35.17
COc1cc(F)ccc1/C=C/C(=O)Nn1ccc(=O)c(O)c1C	35.29
Cc1c(O)c(=O)ccn1NC(=O)/C=C/c1c(F)cccc1F	35.32

The remaining lines, values ahead:

log(activity)	Structure (SMILES)
35.28	Cc1c(O)c(=O)ccn1NC(=O)/C=C/c1cccc(Cl)c1
35.64	COc1cccc(/C=C/C(=O)Nn2ccc(=O)c(O)c2C)c1
35.05	Cc1c(O)c(=O)ccn1NC(=O)/C=C/c1cc(Cl)ccc1Cl
35.77	Cc1c(O)c(=O)ccn1NC(=O)/C=C/c1ccc(F)cc1

From ChEMBL document CHEMBL5537117, “Novel 3-hydroxypyridin-4(1H)-One derivatives as ferroptosis inhibitors with iron-chelating and reactive oxygen species scavenging activities and therapeutic effect in cisplatin-induced cytotoxicity” (Eur J Med Chem, 2024)
